Test results as given in US20250332143A1, “COMPOSITION COMPRISING ALOX5 INHIBITOR FOR PREVENTING OR TREATING SARCOPENIA” (PLUTO Inc., priority 2022, published 2025).
“Also recorded” adds a separate entry of the source.

Key:
LTB4 = LTB4 ELISA in C2C12 muscle fibers; type: cell-based, mouse; settings: Dex-treated myotubes
Method: C2C12 murine skeletal muscle myoblasts were obtained from Koram Biotech (Republic of Korea). The cells were maintained in DMEM growth medium supplemented with 10% FBS, 1% penicillin, and streptomycin. When myoblasts proliferated to approximately 90%, they were differentiated into muscle fibers by treating them with DMEM differentiation medium supplemented with 2% HS, 1% penicillin, and streptomycin for 96 hours. Differentiated muscle fibers were treated with 10 μM Dex for 24 hours to induce sarcopenia. To evaluate the degree of differentiation of muscle cells, differentiating myoblasts were treated with the corresponding compound in differentiation medium for 24 or 48 hours. An LTB4 ELISA kit was purchased from MyBioSource (CA, USA). The concentrations of LTB4 in skeletal muscles and cell lysates were measured by the enzyme-linked […] method according to the manufacturer's instructions. Samples (100 μL) were maintained at room temperature (RT) for 1 hour in 96 wells with polyclonal LTB4 antibody. Afterwards, an enzymatic reaction was performed to stop the process, and the absorbance was measured at 405 nm.

[1] = system: differentiating C2C12 myoblasts; assay: Myogenesis of mouse myotubes differentiated in presence of compound; type: cell-based
Method: (§1) C2C12 murine skeletal muscle myoblasts were obtained from Koram Biotech (Republic of Korea). The cells were maintained in DMEM growth medium supplemented with 10% FBS, 1% penicillin, and streptomycin. When myoblasts proliferated to approximately 90%, they were differentiated into muscle fibers by treating them with DMEM differentiation medium supplemented with 2% HS, 1% penicillin, and streptomycin for 96 hours. Differentiated muscle fibers were treated with 10 μM Dex for 24 hours to induce sarcopenia. To evaluate the degree of differentiation of muscle cells, differentiating myoblasts were treated with the corresponding compound in differentiation medium for 24 or 48 hours.
The concentration of intracellular protein was measured using the Bradford assay (Bio-Rad, USA, CA), and electrophoresis was performed by loading on 10% and 12% polyacrylamide gels. Afterwards, the separated proteins were transferred to a PVDF membrane, and the primary antibody used was diluted 1:1000 in TBS-T containing 5% skim milk and incubated overnight at 4° C. Secondary antibodies were diluted 1:2000 and incubated for 35 minutes at room temperature (RT). Band intensity was measured using ImageJ 1.52 software (National Institutes of Health, USA), and intracellular protein was normalized to α-tubulin.
For quantitative real-time PCR, transcript levels of genes of interest were analyzed using the StepOnePlus real-time PCR system (Applied Biosystems, UK). Total RNA was reverse transcribed to prepare cDNA using AccuPower® RT PreMix (Bioneer Corporation). […] Denaturation was performed at 95° C. for 15 s, annealing was performed at 60° C. for 1 min, and extension was performed at 72° C. for 20 s with fluorescence detection at 72° C. after each cycle. After the final cycle, melting point analysis of all samples was performed within the range of 60 to 95° C. using continuous fluorescence detection. […] Results were expressed as relative expression levels for each gene. The synthesized cDNA was amplified by quantitative real-time PCR (qRT-PCR) or standard PCR.

Alox5 = target: T1, Alox5 (Homo sapiens, UniProt P09917); settings: cited from earlier work
T1 sequence (P09917 1-674): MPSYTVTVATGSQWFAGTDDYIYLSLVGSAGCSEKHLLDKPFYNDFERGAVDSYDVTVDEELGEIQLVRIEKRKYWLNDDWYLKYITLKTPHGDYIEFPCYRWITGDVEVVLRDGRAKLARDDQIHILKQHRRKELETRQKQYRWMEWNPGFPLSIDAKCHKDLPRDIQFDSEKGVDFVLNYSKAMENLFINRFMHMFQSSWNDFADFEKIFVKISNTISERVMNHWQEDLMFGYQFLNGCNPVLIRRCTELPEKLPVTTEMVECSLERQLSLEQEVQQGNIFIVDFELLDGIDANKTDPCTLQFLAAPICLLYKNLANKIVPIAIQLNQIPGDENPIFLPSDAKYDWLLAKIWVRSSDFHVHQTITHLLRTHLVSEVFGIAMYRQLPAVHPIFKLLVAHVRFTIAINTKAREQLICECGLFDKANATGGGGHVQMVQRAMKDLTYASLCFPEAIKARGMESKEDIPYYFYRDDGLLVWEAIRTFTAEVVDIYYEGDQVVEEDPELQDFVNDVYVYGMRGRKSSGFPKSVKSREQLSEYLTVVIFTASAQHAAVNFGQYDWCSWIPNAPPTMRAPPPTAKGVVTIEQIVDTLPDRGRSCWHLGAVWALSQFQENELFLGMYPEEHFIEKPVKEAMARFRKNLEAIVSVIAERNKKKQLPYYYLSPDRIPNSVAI

Atrogin-1 and MuRF-1 = assay: qPCR of muscle atrophy regulators in Dex-treated C2C12 myotubes; type: cell-based, mouse
Method: as §1
For quantitative real-time PCR, transcript levels of genes of interest were analyzed using the StepOnePlus real-time PCR system (Applied Biosystems, UK). Total RNA was reverse transcribed to prepare cDNA using AccuPower® RT PreMix (Bioneer Corporation). The obtained cDNA was subjected to real-time PCR according to the manufacturer's instructions with the following changes. PCR was performed in triplicate in a total volume of 20 μL 2× Power SYBR Green PCR Master Mix (Enzynomics, Republic of Korea) containing 200 nM (final concentration) of each specific primer and 1 μL of cDNA synthesized from 1 μg of total RNA. PCR amplification consisted of incubating the mixture at 95° C. for 10 minutes, followed by 40 cycles of denaturation, annealing, and extension. Denaturation was performed at 95° C. for 15 s, annealing was performed at 60° C. for 1 min, and extension was performed at 72° C. for 20 s with fluorescence detection at 72° C. after each cycle. After the final cycle, melting point analysis of all samples was performed within the range of 60 to 95° C. using continuous fluorescence detection. Specific cDNA samples were included in each run and used as reference material for comparison between runs. The expression level of GAPDH was used to calculate and normalize the expression levels of all other genes. Results were expressed as relative expression levels for each gene. The synthesized cDNA was amplified by quantitative real-time PCR (qRT-PCR) or standard PCR.

LC3b, p62 = assay: Western blot of autophagy markers LC3b I, LC3b II and p62 in Dex-treated myotubes; type: cell-based, mouse
Method: (§2) C2C12 murine skeletal muscle myoblasts were obtained from Koram Biotech (Republic of Korea). The cells were maintained in DMEM growth medium supplemented with 10% FBS, 1% penicillin, and streptomycin. When myoblasts proliferated to approximately 90%, they were differentiated into muscle fibers by treating them with DMEM differentiation medium supplemented with 2% HS, 1% penicillin, and streptomycin for 96 hours. Differentiated muscle fibers were treated with 10 μM Dex for 24 hours to induce sarcopenia. To evaluate the degree of differentiation of muscle cells, differentiating myoblasts were treated with the corresponding compound in differentiation medium for 24 or 48 hours. The concentration of intracellular protein was measured using the Bradford assay (Bio-Rad, USA, CA), and electrophoresis was performed by loading on 10% and 12% polyacrylamide gels. Afterwards, the separated proteins were transferred to a PVDF membrane, and the primary antibody used was diluted 1:1000 in TBS-T containing 5% skim milk and incubated overnight at 4° C. Secondary antibodies were diluted 1:2000 and incubated for 35 minutes at room temperature (RT). Band intensity was measured using ImageJ 1.52 software (National Institutes of Health, USA), and intracellular protein was normalized to α-tubulin.

FoxO3a = assay: Western blot of FoxO3a phosphorylation and Atrogin-1 in Dex-treated myotubes; type: cell-based, mouse
Method: as §2

CC(C)OC(=O)C(C(=O)OC(C)C)=C1SC=CS1 [malotilate, Malotilate]
LTB4 levels (LTB4): lowered | expression of master gene regulators of the myogenic program (Pax7, Myf5, MyoG, Myh2) ([1]; after 24 h of treatment, qPCR): no significant changes | phosphorylation level of Akt ([1]; differentiated myotubes): not significantly altered | expression of differentiation marker Myh2 ([1]; during myogenesis, Western blot): not affected | Alox5 inhibition selectivity (Alox5): selective inhibitor of Alox5 | Atrogin-1 expression (mRNA, qPCR) (Atrogin-1 and MuRF-1): inhibited the upregulation; also recorded: decreased | MuRF-1 expression (mRNA, qPCR) (Atrogin-1 and MuRF-1): inhibited the upregulation; also recorded: decreased | autophagy (LC3b, p62): reduced | expression of p62 (LC3b, p62): increases | ratio of LC3bII to LC3bI (LC3b, p62): decreases | Atrogin-1 expression (Western blot) (FoxO3a): decrease | FoxO3a phosphorylation levels (FoxO3a; Western blot): increased
